Test results from a melting point compilation (Tetko et al.; mined from patent text by program, amines drawn as free bases though some values may be those of a salt).

melting point [°C] | SMILES
96 to 98 | CN1CC=C(C2c3ccccc3CCc3ccccc32)CC1
208 | CNc1nc(C(=O)c2ccc([N+](=O)[O-])c(OC)c2)n2ccccc12
177 to 178 | Cc1oc(-c2ccccc2)nc1COc1ccc(COc2ccc(CCC(=O)O)cc2)cc1
130 | CCNC(=O)C1(CCCc2ccccc2)c2ccccc2Oc2ccccc21
139 to 140 | CCOC(=O)Cc1ccc(NC(=O)C(CO)NS(=O)(=O)c2ccc(Cl)cc2)cc1 (racemic)
141 to 142 | OC(COc1cccc2[nH]ncc12)CN1CCC(COc2ccccc2)CC1 (stereo not drawn)
73 to 75 | CS(=O)(=O)N(Cc1cccnc1)c1ccc(C#N)cc1
348 to 352 | NC(=O)c1ccc2nc3sc(-c4ccccc4)cc3c(=O)n2c1
198 to 199 | COc1cc(C2C3=C(COC3=O)Nc3ccc4cc(C)[nH]c4c32)ccc1F (stereo not drawn)
247 to 249 | O=C(Nc1nc(Cl)c(C(=O)NCc2ccccc2)s1)c1ccccc1
88 to 94 | CC(C#N)c1cccc(C(=O)c2ccccc2)c1 (stereo not drawn)
210 to 211 | CCOC(=O)CCC(=O)c1cnc2c(OC)cccc2c1Nc1ccccc1C
96 to 98 | O=C(CNC(=O)OCc1ccccc1)Nn1cccc1C(=O)c1ccccc1
93 to 95 | CCCCn1cc(C(=O)OCC)c(NC(=S)Nc2ccccc2)n1
228 | CCn1cc(C(=O)O)c(=O)c2cc(Cl)c(N3CCN(Cc4ccccc4)CC3)cc21
202 to 203 | COc1ccc(C(=O)O)c(Sc2ccc(SC)cc2)c1
96 to 97 | COc1cc(CCCC2OC(=O)NC2=O)ccc1OCc1csc(-c2ccccc2)n1 (stereo not drawn)
141 to 142 | Cc1oc(-c2ccco2)nc1COc1ccc(COc2ncccc2CC#N)cc1
159 to 161 | C[C@@H](n1ccnc1)C(O)(c1ccc(Cl)cc1)c1ccc(Cl)cc1
137 to 138 | CCc1cnc(N2CCN(c3nc(-c4ccccc4)nc4ccccc34)CC2)nc1
190 to 192 | NC(=S)Nc1ccc2ccccc2c1
81 to 83 | CCCC(C)(Cl)Cn1ncc(OCc2ccc(CC)cc2)c(Cl)c1=O (stereo not drawn)
114 to 117 | CCC(=C(c1ccc(O)cc1)c1ccc(OCCN(C)C)cc1)c1ccccc1
114 to 116 | FC(F)(F)c1cc(CCC2OCCNC2c2ccccc2)cc(C(F)(F)F)c1 (stereo not drawn)
124 to 126 | CCc1ccccc1-c1nc(-c2ccccc2)n[nH]1
180 | Cc1cccc(-c2ccc3ccc(N)nc3n2)c1
85 to 88 | COc1ccc(C)cc1-c1ccc(S(=O)(=O)N2c3ccccc3CC2C(=O)NCCOc2ccc(CC(=O)O)cc2)cc1 (stereo not drawn)

melting point [°C] | SMILES
184 to 186 | Cc1noc(NS(=O)(=O)c2ccccc2-c2c[nH]c3ccccc23)c1C
115 to 117 | Brc1ccccc1OCc1ccc2ccccc2n1
110 to 111 | CNc1ncn(C)c1C(=O)NCc1ccccc1
211 to 212 | CC(=O)C(C(C)=O)=C1NC(=O)N(Cc2ccccc2)C1=O
92 to 94 | O=C(SCC1C(=O)OCC1c1ccccc1)c1ccccc1F (stereo not drawn)
127 to 135 | O=[N+]([O-])c1ccccc1NN=Cc1ncc(C(F)(F)F)cc1Cl
86 to 87 | O=[N+]([O-])c1cc(S(=O)c2ccccc2)ccc1Cl (stereo not drawn)
170 to 171 | O=[N+]([O-])c1ccc(-c2oncc2CO)cc1
108 to 109 | Cc1ccc(-c2nc(NC(=O)OCC[Si](C)(C)C)cs2)cc1
257 to 259 | CC(=O)Nc1cc(-c2ccncc2)cc2nc(-c3ccc(C)o3)nn12
194 to 195 | CCN1CCCC1CNS(=O)(=O)c1ccc(Nc2ccnc3cc(C(F)(F)F)ccc23)cc1 (stereo not drawn)
69 to 70 | CN(C)CCCOc1ccc(-c2nnc(CSCCOc3ccccc3)o2)cn1
116 | Cc1ccc(S(=O)(=O)N2[C@@H](CC#N)CC[C@H]2c2ccc(F)cc2)cc1 (racemic)
179 to 182 | CCOC(=O)NC(=O)C1c2ccccc2Sc2ccccc21
245 | COc1ccc(C(=O)Nc2ccc3ccc(Nc4ccccc4)nc3n2)cc1
83 to 84 | CNC(=O)C(=O)CCCCCCSc1nc2ccccc2s1
105 to 107 | CCOC(=O)Cc1nnc2c(CC(C)C)nc(-c3ccccc3)cn12
229 to 231 | COC(=O)c1ccc(CSc2nc3ccccc3[nH]2)cc1
169 to 170 | COc1cccc(-c2c(NC(=O)Nc3c(C(C)C)cccc3C(C)C)c(=O)n(C)c3ncccc23)c1
165 to 167 | Cc1nc(Cl)c(C#N)c(NCc2cccnc2)n1
136 to 138 | CSc1nc(NCc2ccc(-c3ccccn3)cc2)n2ncc(C(C)C)c2n1
195 to 196 | CCOc1cc2c(C)c(CCN3CCC(c4ccccc4)CC3)c(=O)oc2cc1OC
222 to 224 | O=C(Nc1ccc(F)cc1F)Nc1c(-c2ccccc2)c2cc(Cl)ccc2[nH]c1=O
64 to 67 | c1ccc(OCCSCc2nnc(-c3ccc(OCCCCN4CCOCC4)cc3)o2)cc1
156 to 157 | COc1cccc(CSc2ncccc2C(=O)O)c1
196 to 197 | O=C(NCCO)c1cccc(-c2ccc3ccn(-c4ncc(Cl)cc4Cl)c3n2)c1

The remaining lines, values behind:

SMILES | melting point [°C]
CC(C(=O)O)c1ccc2ocnc2c1 (stereo not drawn) | 126 to 128
CS(=O)(=O)c1ccc(C(=O)NCc2ccc3c(c2)C(=O)N(C2CCC(=O)NC2=O)C3=O)nc1 (stereo not drawn) | 276 to 278
CCc1cc(-n2ccc(=O)cc2)c(S(C)(=O)=O)cc1C(=O)N=C(N)N | 261 to 263
CN1CCCC(c2cccc3[nH]ccc23)C1 (stereo not drawn) | 151
Cc1noc(NC(=O)N2CCN(c3nccc(-c4cc(F)cc(F)c4)n3)CC2)c1C | 241 to 242
C#CCSC(=NC(=O)OC)NC(=O)Nc1ccc(C)cc1 | 161 to 162
COc1ccc(CNn2c(=O)ccc3ccc(N4CCC[C@H]4CO)nc32)cc1Cl | 131 to 134
OC[C@@H](COc1ccccc1)OC1CCCCO1 (stereo partly drawn) | 39 to 41
N#CCC(=O)Nc1cc(N)ccc1[N+](=O)[O-] | 218 to 220
COC(=O)C(O)C(O)C1CC1 (stereo not drawn) | 54 to 57
CC(=S)NC[C@H]1CN(c2ccc(N3CCC(n4ccnn4)CC3)c(F)c2)C(=O)O1 | 171 to 172
O=C1c2c(Cl)ccc(Cl)c2C(=O)N1CCN1CCC(c2noc3cc(F)ccc23)CC1 | 163 to 164
CCOC(=O)CC(C#N)=CC(=CN(C)C)c1ccc(Cl)cc1 | 168 to 170
CNC(=S)C1=CC(CF)(CF)Oc2ccc(C(F)(F)F)cc21 | 145 to 147
CC(=O)Nc1nc2c(s1)-c1nc(N3CCCC3=O)ncc1CC2 | > 160
CC(C)C(=O)CC(=O)c1ccc(C(=O)CC(=O)C(C)C)cc1 | 97 to 97.5
NP(N)(=S)NC1CCCCC1 | 148 to 150
CCOC(=O)NC(C)c1ccc(O)c(C2CCCCC2)c1 (stereo not drawn) | 97 to 98
Clc1cnc2c(Cl)cccc2n1 | 137 to 138
CCCCCCCCCCCCC#CCC(COC(C)=O)(COC(C)=O)NC(C)=O | 95.5 to 96.5
Nc1cc(CC(=O)O)cc(C(=O)O)c1 | 214 to 220
CCOCCc1ccc(OCCNc2ncnc(COC)c2Cl)c(C)c1 | 39 to 41
O=C(CCCN1CCC2(CC1)OC(=O)c1ccccc12)c1ccc(F)cc1 | 183 to 184
CCCCNc1cc(C)nc2cn[nH]c12 | 160 to 170
Cc1cccc(C(=O)O)c1NC(=O)/C=C1\SCC(=O)N1C | 187

SMILES | melting point [°C]
CC1(C)Cc2ccccc2C(c2cnc3ccccc3c2)N1 (stereo not drawn) | 117 to 122
COc1cc(C(C)=O)ccc1OCCCN1CCC(c2noc3cc(Cl)ccc23)CC1 | 116 to 118
Cc1cncc(C)c1-c1c(C)cc(C=Cc2ccc(C(C#N)C#N)cc2)cc1C | 58 to 60
C=CC=CCC1=C(C)C(OC(=O)C2C(C=C(C)C)C2(C)C)CC1=O (stereo not drawn) | 57
CCOc1cc2c3c(c4cc(OCC)c(OCC)cc4c2cc1OCC)C(=O)C=CC3=O | 188 to 190
C=CCNC(=O)N1CC(OCc2ccc(Cl)c(Cl)c2)C1 | 88 to 89
C=Cn1cc(C(=O)OCC)c(=O)c2cc(F)c(Cl)nc21 | 150 to 151
CC(=O)Nc1ccc(OCCCCO[N+](=O)[O-])cc1 | 92 to 98
COc1ccc2[nH]c(SCC3(N4CCCC4)NC=NC(N4CCCC4)=C3C)nc2c1 (stereo not drawn) | 104 to 106
O=C(NCCCCC1CCSS1)N1CCSC1 (stereo not drawn) | 76 to 77
COC(=O)c1cc(=O)c2c(C(F)(F)F)c3c(=O)cc(C(=O)OC)[nH]c3c(Cl)c2[nH]1 | 205 to 208
Clc1c(Cl)c(Cl)c(CI)c(Cl)c1Cl | 138 to 140
Nc1cc([N+](=O)[O-])c(N)cc1SCC(O)CO (stereo not drawn) | 164
Cc1nc(COc2cc(-n3c(=O)cc(C(F)(F)F)n(C)c3=O)c(F)cc2Cl)cs1 | 145 to 147
CN(C(=O)CCS(C)(=O)=O)c1cn(-c2cccnc2)nc1Cl | 90 to 91
OCCc1nccn1CCCCc1ccc(OCc2coc(/C=C/c3ccc(F)cc3)n2)cc1 | 130 to 132
O=S(=O)(NCCSC1c2ccccc2COc2ccc(/C=C/c3ccc4cc(F)c(F)cc4n3)cc21)C(F)(F)F (stereo not drawn) | 84 to 87
CC(=O)OC1CCC2C3CCC4=CC(=O)C(I)C(C)C4(C)C3CCC12C (stereo not drawn) | 102
CCC(=O)Nc1cccc2c1C1(COc3cc4c(cc31)OCCO4)C(=O)N2C (stereo not drawn) | 224 to 226
CCCCCCCCCCCCCCCCN(C(=O)C(F)(F)F)c1ccc(C(=O)O)cc1 | 50 to 53
COc1cc2c(cc1NC(=S)Nc1ccc([N+](=O)[O-])cc1)C(C)(C)OCC2(C)C | 198 to 199
CSc1ccc(C=CC#N)cc1 | 79
O=[N+]([O-])c1ccc(CP2(=O)OCCO2)cc1 | 144 to 145
CCC1C(C)=NN=C(c2ccc(OC)c(OC)c2)c2cc(OC)c(O)cc21 (stereo not drawn) | 210 to 212
Nc1cccc(C#Cc2ccc(OC3CN4CCC3CC4)nn2)c1 (stereo not drawn) | 152 to 158
